Experimental data: PMC7824859, “BmK NSPK, a Potent Potassium Channel Inhibitor from Scorpion Buthus martensii Karsch, Promotes Neurite Outgrowth via NGF/TrkA Signaling Pathway” (Toxins, 2021)
Where two headings read alike, the source gives them in different places.

Assays:
[1] = test system: voltage-gated sodium channels (VGSCs), Na+ currents in SCNs; assay: Na+ currents, whole-cell patch clamp in SCNs; format: cell-based, C57BL/6 mice
Experimental: (§1) SCN cultures were performed as described previously. The dissociated neurons were planted into poly-L-lysine-coated 35 mm Petri dishes, 96-well plates at densities of 2 × 10^3 cells/dish for patch clamp, 2.25 × 10^5 and 2 × 10^3 cells/well for Ca^2+ imaging and neurite outgrowth experiments, respectively. Cells at 6–8 DIVs (days in vitro) were used to measure K^+ and Na^+ currents, membrane potential, or intracellular Ca^2+ concentration ([Ca^2+]i).
(§2) Current-clamp recordings can provide useful information about the contribution of a channel to membrane potential. Membrane potentials, Na^+ and K^+ currents in SCNs (6–8 DIVs), were recorded using whole-cell patch clamp using an EPC-10 amplifier and PatchMaster software (HEKA, Pfalz, Germany). Pipettes were pulled from 1.5 mm capillary tubing using a P-1000 puller (Sutter Instrument, Novato, CA, USA). The pipette resistance was 2–4 MΩ.
(§3) For current-clamp recordings, to record changes in membrane potential, patch pipettes were filled with intracellular solution containing the following (in mM): KCl 140, MgCl2 5, CaCl2 2.5, EGTA 5, ATP 4, GTP 0.3, and HEPES 10 (pH adjusted to 7.3 with KOH). The external solution contained the following (in mM): NaCl 140, MgCl2 1, KCl 5, CaCl2 2, glucose 10, and HEPES 10 (pH adjusted to 7.3 with NaOH). The membrane potentials were recorded by a 0 pA input current with a duration of 1 s. For voltage-clamp recordings, to record potassium currents, patch pipettes were filled with an internal solution containing (in mM): KCl 140, CaCl2 1, MgCl2 2.5, HEPES 10, EGTA 11, and ATP 4, and pH was adjusted to 7.2 with KOH. Cells were bathed in an external solution containing the following (in mM): choline chloride 150, KCl 5, MgCl2 1, HEPES 10, D-glucose 10, and NMDG 2, and pH was adjusted to 7.4 with KOH. […] Data were collected and analyzed using PatchMaster (HEKA Electronics, Pfalz, Germany) and SigmaPlot (version 10.3, Sigma-Aldrich). […]

[2] = test system: Kv channels, delayed-rectifier (ID) currents in SCNs; assay: Sustained delayed-rectifier K+ current ID, whole-cell patch clamp in SCNs; format: cell-based, C57BL/6 mice
Experimental: as §1, §2, §3
(§4) All data were presented as mean ± SEM. […] Statistical significance between different groups was calculated using an ANOVA and, where appropriate, a Dunnett′s multiple comparison test. […]

[3] = test system: Kv channels, outward K+ currents (IK) in SCNs; assay: Outward K+ current IK (IA + ID), whole-cell patch clamp in SCNs; format: cell-based, C57BL/6 mice
Experimental: as §1, §2
For current-clamp recordings, to record changes in membrane potential, patch pipettes were filled with intracellular solution containing the following (in mM): KCl 140, MgCl2 5, CaCl2 2.5, EGTA 5, ATP 4, GTP 0.3, and HEPES 10 (pH adjusted to 7.3 with KOH). The external solution contained the following (in mM): NaCl 140, MgCl2 1, KCl 5, CaCl2 2, glucose 10, and HEPES 10 (pH adjusted to 7.3 with NaOH). The membrane potentials were recorded by a 0 pA input current with a duration of 1 s. For voltage-clamp recordings, to record potassium currents, patch pipettes were filled with an internal solution containing (in mM): KCl 140, CaCl2 1, MgCl2 2.5, HEPES 10, EGTA 11, and ATP 4, and pH was adjusted to 7.2 with KOH. Cells were bathed in an external solution containing the following (in mM): choline chloride 150, KCl 5, MgCl2 1, HEPES 10, D-glucose 10, and NMDG 2, and pH was adjusted to 7.4 with KOH. To record sodium currents, patch pipettes were filled with an internal solution containing the following (in mM): CsF 135, HEPES 5, and NaCl 10, and pH was adjusted to 7.2 with CsOH. Cells were bathed in external solution containing the following (in […]): NaCl 30, MgCl2 1, CaCl2 1.8, CsCl 5, D-glucose 25, KCl 5, HEPES 5, TEACl 90, and KCl 5, and pH was adjusted to 7.4 with NaOH. Capacitance and series resistance were compensated using computer-controlled circuitry of the amplifier. The outward potassium currents (IK), which contain both transient (IA) and sustained delayed-rectifier (ID) components, were elicited by a series of depolarizing pulses from −110 mV to the potentials ranged from −60 to +80 mV in a 10 mV increment. To record the ID currents, voltages were stepped to the potentials ranged from −60 to +80 mV in a 10 mV increment from a 200 ms pre-depolarization potential of −40 mV that inactivated IA currents. IA currents were obtained by subtracting ID currents from IK currents. Na^+ currents were elicited by depolarization steps from a holding potential of −100 mV to +45 mV in a 5 mV increment. Data were collected and analyzed using PatchMaster (HEKA Electronics, Pfalz, Germany) and SigmaPlot (version 10.3, Sigma-Aldrich). Concentration–response curves were fitted using the Hill equation: Inor= C + A/[1 + ([BmK NSPK]/EC50)^p] […]
as §4

[4] = test system: spinal cord neurons (SCNs); assay: Neurite outgrowth, MAP2 immunocytochemistry in SCNs; format: cell-based, C57BL/6 mice
Experimental: as §1
Immunocytochemistry was performed as described previously. After fixation, permeabilization, and blocking, neurons were incubated with primary antibody against MAP2 (1:1000) overnight at 4 °C and Alexa Fluor 488-conjugated goat anti-rabbit secondary antibody (1:1000) for 1 h at room temperature (RT), respectively. Hoechst 33,342 (1.6 μg/mL) was added into each well and incubated for 20 min to stain the nuclei. The images were captured by an eclipse inverted fluorescence microscope (Nikon, Tokyo, Japan). Neurites were manually tracked using ImageJ software (FIJI, version 1.51 g, NIH, Bethesda, MD, USA). Only the neurons with total neurite length ≥50 μm were used for quantification. The experiment was performed double blindly.

[5] = test system: Kv channels, transient (IA) currents in SCNs; assay: Transient K+ current IA, whole-cell patch clamp in SCNs; format: cell-based, C57BL/6 mice
Experimental: as §1, §2, §3, §4

[6] = test system: spinal cord neurons (SCNs), membrane potential; assay: Membrane potential, whole-cell current-clamp recording in SCNs; format: cell-based, C57BL/6 mice
Experimental: as §1, §2
For current-clamp recordings, to record changes in membrane potential, patch pipettes were filled with intracellular solution containing the following (in mM): KCl 140, MgCl2 5, CaCl2 2.5, EGTA 5, ATP 4, GTP 0.3, and HEPES 10 (pH adjusted to 7.3 with KOH). […] The membrane potentials were recorded by a 0 pA input current with a duration of 1 s. […] Data were collected and analyzed using PatchMaster (HEKA Electronics, Pfalz, Germany) and SigmaPlot (version 10.3, Sigma-Aldrich). […]

[7] = test system: spinal cord neurons (SCNs); assay: Spontaneous calcium oscillation (SCO) measurement, FLIPR Tetra, primary cultured spinal cord neurons; format: cell-based, C57BL/6 mice; settings: 6-8 DIV, N = 4 wells; for EC50: primary cultured SCNs, FLIPR Tetra, Hill slope = 1.0
Experimental: as §1
The intracellular Ca^2+ concentration [Ca^2+]i of SCNs was measured using FLIPR^Tetra® system (Molecular Devices, Sunnyvale, CA, USA) as described previously.
All data were presented as mean ± SEM. Graphing and data analysis were performed using GraphPad Prism software (Version 6.0, San Diego, CA, USA). Concentration–response curves were fitted by a nonlinear logistic equation. The IC50 values and 95% confidence intervals (CI) were determined by nonlinear regression using GraphPad Prism software. Statistical significance between different groups was calculated using an ANOVA and, where appropriate, a Dunnett′s multiple comparison test. A p-value below 0.05 was considered statistically significant.

[8] = test system: protein kinase B (Akt) phosphorylation in SCNs; assay: Akt phosphorylation in SCNs, Western blot; format: cell-based, C57BL/6 mice; settings: 30 nM, n = 4
Experimental: Equal amounts (30 μg) of cell lysates were loaded onto a 10% SDS-PAGE gel and transferred to a nitrocellulose membrane by electroblotting. After blocking, the blots were incubated with primary antibodies against p-Akt (1:1000) overnight at 4 °C and then incubated with the IRDye (680 RD or 800 CW)-labeled secondary antibodies (1:10,000) for 1 h at RT. The membranes were scanned and densitometry was quantified using LI-COR Odyssey Infrared Imaging System and its application software (version 2.1, LI-COR Biotechnology). The membranes were stripped with stripping buffer (LI-COR Biotechnology) and reblotted for analysis of the expression of Akt. Beta-tubulin (1:10,000) was used as a loading control.

[9] = test system: nerve growth factor (NGF) release in SCNs; assay: NGF release into culture medium of SCNs, ELISA; format: cell-based, C57BL/6 mice; settings: 10 nM, n = 4
Experimental: The NGF levels in the culture medium were determined by enzyme-linked immunosorbent assay (ELISA) kits according to the manufacturer’s instructions.

[10] = test system: sensory neurons; settings: via TrkA receptors; ref [39]; cited from earlier work
[11] = test system: PC12 cells; settings: via TrkA receptors; ref [38]; cited from earlier work

With “BmK NSPK: new short-chain scorpion peptide purified from Buthus martensii Karsch venom, Kv channel inhibitor, sequence by Edman degradation (VGKNVICIHSGQCLIPCIDAGMRFGICKNGICDCTPKG)” the “Effect on Na+ currents” value ([1]; 1000 nM, holding −100 mV to +45 mV in 5 mV increments, N = 4–5 neurons) was “no effect on the Na^+ currents”, the “Effect on VGSCs” value ([1]; discussion wording) was “little effect on VGSCs” and the “Effect on ID currents” value ([2]; 300 nM, potentials −60 to +80 mV after 200 ms pre-depolarization at −40 mV) was “inhibited ID currents elicited by a series of depolarization potentials with voltage dependence”. The “Maximal inhibition of ID currents” value ([2]; Figure 4J) was ~ 43%, the IC50 ([2]; depolarization from -40 mV to +70 mV, 95% CI 0.68–7.44 nM, Hill slope = −0.86, N = 4–5 neurons, read-out: IC50, suppression of ID currents) was 2.24 nM and the “Voltage dependence of IK inhibition” value ([3]; 300 nM) was “voltage-dependent”. For the same compound, the “Effect on IK currents” value ([3]; 300 nM, depolarizing potentials −60 to +80 mV from holding −110 mV) was “inhibited the IK currents at all depolarized potentials”, the IC50 ([3]; depolarization from -110 mV to +70 mV, 95% CI 0.68–8.61 nM, Hill slope = −0.86, N = 4–5 neurons, read-out: IC50, suppression of IK currents) was 2.42 nM and the “Potency on outward potassium channel currents” value ([3]; discussion wording, SCNs) was “single-digit nanomolar concentrations”. For the same compound, the “Completeness of inhibition of IK, IA and ID currents” value ([3]; highest concentration (100 nM)) was “incomplete even at the highest concentration (100 nM)”, the “Concentration of maximal stimulation of neurite extension” value ([4]; 48 h exposure commencing 5 h post-plating) was ~ 10 nM and the “Effect on neurite extension” value ([4]; 48 h exposure commencing 5 h post-plating, MAP2 staining) was “stimulated neurite extension in cultured SCNs in a nonmonotonic manner”. For the same compound, the “Effect on IA currents” value ([5]; 300 nM, each depolarizing potential) was “suppressed IA currents at each depolarizing potential”, the “Maximal inhibition of IA currents” value ([5]; Figure 4J) was ~ 75% and the IC50 ([5]; IA = IK minus ID, 95% CI 0.41–2.13 nM, Hill slope = −1.27, N = 4–5 neurons, read-out: IC50, suppression of IA currents) was 0.93 nM. The “Apparent affinity for membrane depolarization (and SCO increase)” value ([6]; SCN cultures, discussion wording) was “low apparent nanomolar affinity”, the “Effect on membrane potential” value ([6]; SCNs, 6-8 DIV, 0 pA input, whole-cell current clamp) was “concentration-dependent membrane depolarization” and the “Effect on amplitude and frequency of SCOs” value ([7]; SCNs) was “rapid and sustained increase in both the amplitude and frequency of SCOs”. For the same compound, the EC50 ([7]; 95% CI 2.22–17.4 nM, read-out: EC50 for increase in SCO frequency) was 6.22 nM, the EC50 ([7]; 95% CI 4.00–45.1 nM, read-out: EC50 for increase in SCO amplitude) was 13.4 nM and the “Duration of Akt phosphorylation increase” value [8] was ≥ 30 min. For the same compound, the “Onset of Akt phosphorylation increase” value [8] was ≤ 5 min, the “Phosphorylated levels of Akt” value ([8]; p < 0.01 vs. Veh) was “rapidly increased phosphorylated levels of Akt” and the “Duration of NGF release” value [9] was “at least 8 h”. For the same compound, the “Increase in NGF release” value ([9]; p < 0.05 vs. Veh) was ~ 50%.

With `NC1=N[C@H](O)[C@H]2[C@H]3O[C@]4(O)O[C@@H]([C@@H](O)[C@@]2(N1)[C@@H]4O)[C@]3(O)CO` [tetrodotoxin, reference compound] the “Effect on Na+ currents” value [1] was “suppressed the Na^+ currents”.

In the case of `Cn1cc(/C=C2\C(=O)Nc3cccnc32)c2ccccc21` [GW 441756, reference compound], the “Effect on BmK NSPK-induced neurite outgrowth” value ([4]; GW 441756 1 μM added 30 min before BmK NSPK (10 nM), 48 h, p < 0.01 vs. BmK NSPK) is reported as “abolished BmK NSPK-induced neurite outgrowth”.

In the case of nerve growth factor [NGF], the “Effect on neurite extension” value [10] is listed as “enhance the neurite extension” and the “Effect on neurite extension” value [11] is listed as “enhance the neurite extension”.
